Results reported in patent US20220000110A1, “COMPOSITIONS COMPRISING PYRIDINE CARBOXYLATE HERBICIDES AND CELLULOSE BIOSYNTHESIS INHIBITOR HERBICIDES” (priority 2018, published 2022).
Where two headings read alike, the source gives them in different places.

Legend:
Format in all cases: in vivo
[1] = test system: Brassica napus (spring rape); assay: Greenhouse postemergence herbicidal effect, visual injury after 20-22 d; conditions: BRSNN
From the text: (§1) Greenhouse Trial Methodology—Evaluation of Postemergence Herbicidal Effect
(§2) Seeds of the desired test plant species were planted in a 90:10% v/v (volume/volume) mixture of PRO-MIX® BX (Premier Tech Horticulture, Quakertown, Pa., USA) and PROFILE® GREENS GRADE™ (Profile Products LLC, Buffalo Grove, Ill., USA) planting mixture, which typically has a pH of 5.2 to 6.2 and an organic matter content of at least 50 percent, in plastic pots with a surface area of 103.2 square centimeters (cm^2). In some aspects, to help ensure good germination and healthy plants, a fungicide treatment and/or other chemical or physical treatment was applied. The plants were grown for 7-36 days (d) in a greenhouse with an approximate 14-hour (h) photoperiod which was maintained at about 23° C. during the day and 22° C. during the night. Nutrients and water were added on a regular basis and supplemental lighting was provided with overhead metal halide 1000-Watt lamps as necessary. The plants were employed for testing when they reached the second or third true leaf stage.
(§3) Emulsifiable concentrates of each of each pyridine carboxylate herbicide (Compound A or Compound B) were prepared at 100 grams acid equivalent per liter (g ae/L). The emulsifiable concentrates also included a safener, at 120 grams active ingredient per liter (g ai/L). An aliquot of each emulsifiable concentrate was placed in a 25 mL glass vial and diluted with an aqueous mixture of 1.25% (v/v) ACTIROB® B esterified rapeseed oil (Bayer Crop Science, Research Triangle Park, N.C., USA) or MSO® Concentrate with LECI-TECH® methylated soybean oil (Loveland Products, Loveland, Colo., USA) to obtain concentrated stock solutions at the highest application rate for each herbicide, based upon a 12 milliliter (mL) application volume at a rate of 187 liters per hectare (L/ha). The concentrated stock solutions were further diluted with an aqueous mixture of 1.25% v/v ACTIROB® B or MSO® Concentrate with LECI-TECH® to obtain stock solutions at reduced application rates for each herbicide. Spray solutions of the herbicide combinations (Compound A or Compound B plus the CBI herbicide) were prepared by adding weighed amounts or aliquots of the CBI herbicide to the stock solutions of Compound A or Compound B to form 12-mL spray solutions in two-way combinations.
(§4) The spray solutions were applied to the plant material with an overhead Mandel track sprayer equipped with 8002E nozzles calibrated to deliver 187 L/ha over an application area of 0.503 square meters (m^2) at a spray height of 18 inches (43 centimeters (cm)) above the average plant canopy. Control plants were sprayed in the same manner with the solvent blank. All pyridine carboxylate herbicide (component a) application rates are given as “g ae/ha” and all CBI herbicide (component b) application rates are given as “g ai/ha.”
(§5) The treated plants and control plants were placed in a greenhouse as described above and watered by sub-irrigation to prevent wash-off of the test compounds. After 20-22 d, the condition of the test plants as compared with that of the control plants was determined visually and scored on a scale of 0 to 100 percent where 0 corresponds to no injury and 100 corresponds to complete kill.

[2] = test system: Brassica napus (winter rape); assay: as above; conditions: BRSNW
From the text: as §1, §2, §3, §4, §5

[3] = test system: Cirsium arvense (Canadian thistle); assay: as above; conditions: CIRAR
From the text: as §1, §2, §3, §4, §5

[4] = test system: Digitaria sanguinalis (large crabgrass); assay: as above; conditions: DIGSA
From the text: as §1, §2, §3, §4, §5

[5] = test system: Echinochloa crus-galli (barnyard grass); assay: as above; conditions: ECHCG
From the text: as §1, §2, §3, §4, §5

[6] = test system: Helianthus annuus (common sunflower); assay: as above; conditions: Table 1, HELAN
From the text: as §1, §2, §3, §4, §5

[7] = test system: Kochia scoparia (kochia); assay: as above; conditions: KCHSC
From the text: as §1, §2, §3, §4, §5

[8] = test system: Oryza sativa (common rice); assay: as above; conditions: Table 1, ORYSA
From the text: as §1, §2, §3, §4, §5

[9] = test system: Rumex obtusifolius (broad-leaf dock); assay: as above; conditions: Table 1, RUMOB
From the text: as §1, §2, §3, §4, §5

[10] = test system: Setaria faberi (giant foxtail); assay: as above; conditions: SETFA
From the text: as §1, §2, §3, §4, §5

[11] = test system: Stellaria media (chickweed); assay: as above; conditions: Table 1, STEME
From the text: as §1, §2, §3, §4, §5

[12] = test system: Viola tricolor (wild pansy); assay: as above; conditions: VIOTR
From the text: as §1, §2, §3, §4, §5

[13] = test system: Hordeum vulgare (spring barley); conditions: HORVS
From the text: as §1, §2, §3, §4, §5

## N#CCOC(=O)c1nc(-c2ccc3cc[nH]c3c2F)c(F)c(N)c1Cl [Compound A, cyanomethyl 4-amino-3-chloro-5-fluoro-6-(7-fluoro-1H-indol-6-yl)pyridine-2-carboxylate]
[1]; Table 1, Compound A 7.5 g/ha
  Obs % visual injury: 65%
[1]; Table 1, Compound A 10 g/ha
  Obs % visual injury: 65%
[1]; Table 2, Compound A 7.5 g/ha
  Obs % visual injury: 73%
[1]; Table 2, Compound A 10 g/ha
  Obs % visual injury: 83%
[2]; Table 3, Compound A 7.5 g/ha
  Obs % visual injury: 60%
[2]; Table 3, Compound A 10 g/ha
  Obs % visual injury: 60%
[2]; Table 3, Compound A 15 g/ha
  Obs % visual injury: 75%
[2]; Table 4, Compound A 7.5 g/ha
  Obs % visual injury: 60%
[2]; Table 4, Compound A 10 g/ha
  Obs % visual injury: 60%
[2]; Table 4, Compound A 15 g/ha
  Obs % visual injury: 75%
[3]; Table 1, Compound A 7.5 g/ha
  Obs % visual injury: 40%
[3]; Table 1, Compound A 10 g/ha
  Obs % visual injury: 60%
[3]; Table 2, Compound A 7.5 g/ha
  Obs % visual injury: 23%
[3]; Table 2, Compound A 10 g/ha
  Obs % visual injury: 20%
[4]; Table 1, Compound A 7.5 g/ha
  Obs % visual injury: 35%
[4]; Table 1, Compound A 10 g/ha
  Obs % visual injury: 38%
[4]; Table 2, Compound A 7.5 g/ha
  Obs % visual injury: 45%
[4]; Table 2, Compound A 10 g/ha
  Obs % visual injury: 25%
[5]; Table 1, Compound A 7.5 g/ha
  Obs % visual injury: 88%
[5]; Table 1, Compound A 10 g/ha
  Obs % visual injury: 80%
[5]; Table 2, Compound A 7.5 g/ha
  Obs % visual injury: 73%
[5]; Table 2, Compound A 10 g/ha
  Obs % visual injury: 78%
[6]; Compound A 7.5 g/ha
  Obs % visual injury: 90%
[6]; Compound A 10 g/ha
  Obs % visual injury: 89%
[7]; Table 1, Compound A 7.5 g/ha
  Obs % visual injury: 75%
[7]; Table 1, Compound A 10 g/ha
  Obs % visual injury: 73%
[7]; Table 2, Compound A 7.5 g/ha
  Obs % visual injury: 60%
[7]; Table 2, Compound A 10 g/ha
  Obs % visual injury: 65%
[7]; Table 3, Compound A 7.5 g/ha
  Obs % visual injury: 70%
[7]; Table 3, Compound A 10 g/ha
  Obs % visual injury: 70%
[7]; Table 3, Compound A 15 g/ha
  Obs % visual injury: 70%
[7]; Table 4, Compound A 7.5 g/ha
  Obs % visual injury: 70%
[7]; Table 4, Compound A 10 g/ha
  Obs % visual injury: 70%
[7]; Table 4, Compound A 15 g/ha
  Obs % visual injury: 70%
[8]; Compound A 7.5 g/ha
  Obs % visual injury: 3%
[8]; Compound A 10 g/ha
  Obs % visual injury: 8%
[9]; Compound A 7.5 g/ha
  Obs % visual injury: 20%
[9]; Compound A 10 g/ha
  Obs % visual injury: 13%
[10]; Table 1, Compound A 7.5 g/ha
  Obs % visual injury: 78%
[10]; Table 1, Compound A 10 g/ha
  Obs % visual injury: 80%
[10]; Table 2, Compound A 7.5 g/ha
  Obs % visual injury: 70%
[10]; Table 2, Compound A 10 g/ha
  Obs % visual injury: 70%
[11]; Compound A 7.5 g/ha
  Obs % visual injury: 89%
[11]; Compound A 10 g/ha
  Obs % visual injury: 90%
[12]; Table 1, Compound A 7.5 g/ha
  Obs % visual injury: 38%
[12]; Table 1, Compound A 10 g/ha
  Obs % visual injury: 15%
[12]; Table 2, Compound A 7.5 g/ha
  Obs % visual injury: 10%
[12]; Table 2, Compound A 10 g/ha
  Obs % visual injury: 18%
[13]; Table 3, Compound A 7.5 g/ha
  Obs % visual injury: 8%
[13]; Table 3, Compound A 10 g/ha
  Obs % visual injury: 5%
[13]; Table 3, Compound A 15 g/ha
  Obs % visual injury: 3%
[13]; Table 4, Compound A 7.5 g/ha
  Obs % visual injury: 8%
[13]; Table 4, Compound A 10 g/ha
  Obs % visual injury: 5%
[13]; Table 4, Compound A 15 g/ha
  Obs % visual injury: 3%
